# Measured values reported in patent US5939405A, “Phosphate derivatives of diaryl 1,3,4-oxadiazolone” (priority 1999, dated 1999).
# Assays:
# [1] = test system: non-BK native currents in the oocytes; experiment: non-BK (IBTX-insensitive) native current in oocytes, voltage clamp; format: cell-based, Xenopus; settings: at the tested concentration; current remaining in presence of 50 nM IBTX
# Experimental: (§1) The ability of the compound of Example 1 to open BK channels and increase whole-cell outward (K^+) BK-mediated currents was assessed under voltage-clamp conditions by determining their ability to increase cloned mammalian (mSlo or hSlo) BK-mediated outward current heterologously expressed in Xenopus oocytes [Butler, A., et al., Science, 261, pp. 221-224 (1993); and Dworetzky, S. I., et al., Mol. Brain Res., 27, pp.189-193 (1994)]. The two BK constructs employed represent nearly structurally identical homologous proteins, and have proven to be pharmacologically identical in our tests. To isolate BK current from native (background, non-BK) current, the specific and potent BK channel-blocking toxin iberiotoxin (IBTX) [Galvez, A., et al., J. Biol. Chem,265, pp. 11083-11090 (1990)] was employed at a supramaximal concentration (50 nM). The relative contribution of BK channels current to total outward current was determined by subtraction of the current remaining in the presence of IBTX (non-BK current) from the current profiles obtained in all other experimental conditions (control, drug, and wash). […]
# cortical infarct volume = experiment: focal stroke model, permanent MCA and CCA occlusion; format: in vivo; settings: 10 μg/kg intravenously, single bolus two hours after MCAO; Wistar rat; infarct measured 24 hours after MCAO; vs vehicle-treated (water) control
# Experimental: To determine the ability of the compounds of the present invention to reduce cell loss resulting from neuronal ischemia, a standard focal cerebral ischemia is induced by permanent occlusion of the left middle cerebral artery (MCA) and common carotid artery (CCA) with one hour occlusion of the right CCA in the Wistar rat. The surgeries are performed using the sub-temporal approach of A. Tamura, et al., J. Cereb. Blood Flow Metab., 1, pp. 53-60, (1981) and its modifications [K. Osborne, et al., J. Neurol Neurosurg. Psychiatry, 50, pp. 402-410 (1987) and S. Menzies, et al., Neurosurgery, 31, pp. 100-107, (1992).]
# The compound of Example 1 was evaluated in the focal stroke model involving permanent occlusion of the left MCA (MCAO) and CCA (CCAO) and temporary occlusion of the right CCA in the Wistar rat. This procedure results in a reliably large neocortical infarct volume that is measured by means of vital dye exclusion in serial slices through the brain 24 hours after MCAO. In the present test, compounds were administered using an i.v. or i.p. route of administration two hours after occlusion.
# [2] = test system: cloned mammalian (mSlo or hSlo) BK channels; experiment: BK-mediated outward current in Xenopus oocytes, two-electrode voltage clamp; format: cell-based; settings: 1 μM; at least 5 oocytes; mSlo or hSlo expressed in Xenopus oocytes
# Experimental: as §1
# [3] = rapid screen of prodrug hydrolysis and drug release in plasma; format: in vitro ADME; settings: 10 ug/mL in fresh rat plasma at 37° C.; stock 1 mg/mL in PEG-400; analysis 5 minutes after incubation; HPLC
# Experimental: A rapid screen to determine the ability of prodrugs to hydrolyze and release the drug (compound of Example 1) is conducted as follows. A 1 mg/mL stock solution of the prodrug is prepared in distilled water or acetonitrile or PEG-400. Plasma from freshly collected rat or human blood is used in this assay. To 1 mL of plasma at 37° C. was added 10 μL of stock solution of prodrug and mixed gently. Immediately after the mixing, 100 μL of plasma was removed and quenched with 300 μL of acetontrile (Zero time sample). Samples were also obtained at 30 minutes and quenched immediately. The quenched samples were centrifuged to obtain a clear supernatant for analysis. The stock solution, T=0 and T=30 samples were analyzed by a HPLC assay that separates the drug from the prodrug. Based on the relative peak areas of prodrug and drug in these samples, different prodrugs are characterized as fast, moderate and slow release agents. For example, in this model, the compound of Example 6 was dissolved in PEG-400 at a concentration of 1 mg/mL and incubated at 10 ug/mL in fresh rat plasma at 37° C.
Structure (SMILES),effect on non-BK native currents in the oocytes [1],reduction of cortical infarct volume (cortical infarct volume),"BK current, % of control of IBTX-sensitive current [2]",conversion of prodrug to the drug (compound of Example 1) [3]
"O=c1oc(-c2ccc(C(F)(F)F)cc2)nn1Cc1cc(Cl)ccc1O [Example 1, 3-[(5-Chloro-2-hydroxyphenyl)methyl]-5-[4-(trifluoromethyl)phenyl]-1,3,4-oxadiazol-2(3H)-one]",did not effect non-BK native currents,about 18%,126 % of control,
"O=C(COP(=O)(O)O)Oc1ccc(Cl)cc1Cn1nc(-c2ccc(C(F)(F)F)cc2)oc1=O [Example 6, 3-[[5-Chloro-2-[[[(phosphonooxy)methyl]carbonyl]oxy]phenyl]methyl]-5-[4-(trifluoromethyl)phenyl]-1,3,4-oxadiazol-2(3H)-one]",,,,conversion of the compound of Example 6 to the compound of Example 1
